In PMC11510563 (Pharmaceutics, 2024):

Target: T1, oxytocin receptors (Homo sapiens, UniProt P30559)
T1 construct: endogenous in cells; host or cells: Hs 578T breast cancer cells
T1 sequence (P30559 1-389): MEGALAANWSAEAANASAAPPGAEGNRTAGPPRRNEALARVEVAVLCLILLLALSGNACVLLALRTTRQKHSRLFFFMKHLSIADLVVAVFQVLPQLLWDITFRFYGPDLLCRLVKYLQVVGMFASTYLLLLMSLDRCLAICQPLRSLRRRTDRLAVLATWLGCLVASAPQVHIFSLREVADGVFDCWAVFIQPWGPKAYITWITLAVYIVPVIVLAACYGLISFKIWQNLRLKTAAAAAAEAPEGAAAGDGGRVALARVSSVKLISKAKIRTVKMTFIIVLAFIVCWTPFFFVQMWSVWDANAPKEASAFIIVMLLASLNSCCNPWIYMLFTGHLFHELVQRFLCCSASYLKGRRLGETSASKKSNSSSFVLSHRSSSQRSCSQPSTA
Assay: calcium fluorimetry reporter assay in Hs 578T cells
Assay type: cell-based
Details: Fluo-4, L-368,899 0.1-10 μM, SR 49059 0.1 μM, tolvaptan 1 nM
Procedure: Twenty-four hours prior to use, Hs 578T cells were seeded in black 96-well plates (80,000 cells in 100 μL of supplemented DMEM per well). On the test day, changes in intracellular calcium ([Ca^2+]i) were measured using a Fluo-4 no wash calcium assay kit (F36206; Thermo Fisher Scientific). Briefly, medium was aspirated and replaced with 100 μL of 1× dye loading solution (Fluo-4 NW mix in 1× HBSS) containing 20 mM 4-(2-hydroxyethyl)-1piperazineethanesulfonic acid (HEPES, Sigma-Aldrich) and 2.5 mM probenecid, which prevents the active transport of Fluo-4 out of the cells. Cells were incubated for 40 min, and then mean fluorescence across each well was measured every 1.6 s for 90 s using a Flexstation 3 (Molecular Devices, Wokingham, UK) with excitation at 485 nm and emission at 525 nm.

| Compound | sensitivity of oxytocin-induced [Ca^2+]i increases to the antagonist |
| --- | --- |
| Cc1ccccc1N1CCN(S(=O)(=O)C[C@]23CC[C@H](C[C@@H]2NC(=O)[C@@H](N)CCS(C)(=O)=O)C3(C)C)CC1 [L-368,899] | sensitive to blockade |
| COc1ccc(S(=O)(=O)N2c3ccc(Cl)cc3[C@](O)(c3ccccc3Cl)[C@@H]2C(=O)N2CCC[C@H]2C(N)=O)cc1OC [SR 49059] | not sensitive |
| Cc1ccccc1C(=O)Nc1ccc(C(=O)N2CCCC(O)c3cc(Cl)ccc32)c(C)c1 (stereo not drawn) [tolvaptan] | not sensitive |
